Key:
Experiment in all cases: Epigenetic panel (BPS Bioscience)
Assay type in all cases: biochemical
PRMT6 = target: T1, PRMT6 (Homo sapiens, UniProt Q96LA8)
T1 construct: purchased BPS Bioscience; Eurofins (HDAC4, 5, 7-11)
How it was run: (§1)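 Binding at 10 μM was measured in duplicate for CM-444 and CM-1758 as part of a selectivity screen spanning many epigenetic readers, writers and erasers.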

EZH2 (A738T) = target: T2, EZH2 (A738T) (Homo sapiens, UniProt Q15910)
T2 construct: purchased BPS Bioscience; Eurofins (HDAC4, 5, 7-11)
How it was run: as §1

Jarid1A = target: T3, Jarid1A (Homo sapiens, UniProt P29375)
T3 construct: purchased BPS Bioscience; Eurofins (HDAC4, 5, 7-11)
How it was run: as §1

FBXL11 = target: T4, FBXL11 (Homo sapiens, UniProt Q9Y2K7)
T4 construct: purchased BPS Bioscience; Eurofins (HDAC4, 5, 7-11)
How it was run: as §1

JMJD1A = target: T5, JMJD1A (Homo sapiens, UniProt Q9Y4C1)
T5 construct: purchased BPS Bioscience; Eurofins (HDAC4, 5, 7-11)
How it was run: as §1

EZH2 (Y641C) = target: T6, EZH2 (Y641C) (Homo sapiens, UniProt Q15910, Y641C)
T6 construct: purchased BPS Bioscience; Eurofins (HDAC4, 5, 7-11)
How it was run: as §1

Jarid1B = target: T7, Jarid1B (Homo sapiens, UniProt Q9UGL1)
T7 construct: purchased BPS Bioscience; Eurofins (HDAC4, 5, 7-11)
How it was run: as §1

JMJD2A = target: T8, JMJD2A (Homo sapiens, UniProt O75164)
T8 construct: purchased BPS Bioscience; Eurofins (HDAC4, 5, 7-11)
How it was run: as §1

PRMT4 = target: T9, PRMT4 (Homo sapiens, UniProt Q86X55)
T9 construct: purchased BPS Bioscience; Eurofins (HDAC4, 5, 7-11)
How it was run: as §1

UTX = target: T10, UTX (Homo sapiens, UniProt O15550)
T10 construct: purchased BPS Bioscience (contracted assay service)
How it was run: as §1

SMYD2 = target: T11, SMYD2 (Homo sapiens, UniProt Q9NRG4)
T11 construct: purchased BPS Bioscience; Eurofins (HDAC4, 5, 7-11)
How it was run: as §1

GCN5 = target: T12, GCN5 (Homo sapiens, UniProt Q92830); conditions: read-out: % of inhibition
T12 construct: purchased BPS Bioscience; Eurofins (HDAC4, 5, 7-11)
How it was run: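 CM-444 and CM-1758 were profiled against a broad epigenetic panel of demethylases, methyltransferases, bromodomains and other enzymes. Each was tested at a single concentration of 10 μM, in duplicate.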

JMJD2E = target: T13, JMJD2E (Homo sapiens, UniProt B2RXH2)
T13 construct: purchased BPS Bioscience; Eurofins (HDAC4, 5, 7-11)
How it was run: as §1

SIRT1 = target: T14, SIRT1 (Homo sapiens, UniProt Q96EB6)
T14 construct: purchased BPS Bioscience; Eurofins (HDAC4, 5, 7-11)
How it was run: as §1

JMJD2C = target: T15, JMJD2C (Homo sapiens, UniProt Q9H3R0)
T15 construct: purchased BPS Bioscience; Eurofins (HDAC4, 5, 7-11)
How it was run: as §1

T10 sequence (O15550 whole entry): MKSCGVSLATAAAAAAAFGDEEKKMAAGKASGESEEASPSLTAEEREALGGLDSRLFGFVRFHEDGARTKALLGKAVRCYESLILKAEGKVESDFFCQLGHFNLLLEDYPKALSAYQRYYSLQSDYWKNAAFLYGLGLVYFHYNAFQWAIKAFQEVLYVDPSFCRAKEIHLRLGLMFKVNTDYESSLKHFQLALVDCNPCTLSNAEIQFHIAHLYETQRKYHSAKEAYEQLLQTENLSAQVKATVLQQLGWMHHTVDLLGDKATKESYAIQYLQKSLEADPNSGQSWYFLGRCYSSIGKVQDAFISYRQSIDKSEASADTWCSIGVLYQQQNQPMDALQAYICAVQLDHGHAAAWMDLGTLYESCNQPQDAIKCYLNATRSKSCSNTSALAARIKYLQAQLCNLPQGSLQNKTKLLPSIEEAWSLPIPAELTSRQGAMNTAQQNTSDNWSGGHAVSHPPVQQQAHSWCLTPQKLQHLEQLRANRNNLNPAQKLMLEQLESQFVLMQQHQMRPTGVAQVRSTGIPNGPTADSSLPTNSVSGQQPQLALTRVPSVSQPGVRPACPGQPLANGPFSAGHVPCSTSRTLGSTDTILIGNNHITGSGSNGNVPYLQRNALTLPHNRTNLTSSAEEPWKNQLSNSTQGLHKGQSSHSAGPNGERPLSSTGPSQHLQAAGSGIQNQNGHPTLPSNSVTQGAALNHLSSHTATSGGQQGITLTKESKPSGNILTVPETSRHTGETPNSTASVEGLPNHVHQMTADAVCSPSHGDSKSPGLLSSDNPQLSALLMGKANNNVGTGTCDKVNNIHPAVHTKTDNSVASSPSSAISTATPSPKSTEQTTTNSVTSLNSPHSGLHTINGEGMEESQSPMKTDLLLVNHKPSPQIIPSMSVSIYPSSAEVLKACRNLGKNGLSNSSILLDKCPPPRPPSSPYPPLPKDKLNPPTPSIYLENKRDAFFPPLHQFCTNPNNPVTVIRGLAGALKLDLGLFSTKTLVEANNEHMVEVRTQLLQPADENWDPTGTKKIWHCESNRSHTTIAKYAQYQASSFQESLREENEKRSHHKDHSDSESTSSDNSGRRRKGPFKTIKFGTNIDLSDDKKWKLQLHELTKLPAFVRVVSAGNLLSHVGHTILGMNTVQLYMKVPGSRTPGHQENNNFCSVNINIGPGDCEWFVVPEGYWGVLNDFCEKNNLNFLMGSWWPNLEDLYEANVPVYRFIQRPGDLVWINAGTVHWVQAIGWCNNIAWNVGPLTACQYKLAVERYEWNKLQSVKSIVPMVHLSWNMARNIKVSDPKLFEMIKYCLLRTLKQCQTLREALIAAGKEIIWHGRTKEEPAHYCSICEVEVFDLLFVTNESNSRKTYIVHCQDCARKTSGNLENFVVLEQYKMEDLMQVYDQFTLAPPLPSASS
T6 sequence (Q15910 whole entry Y641C): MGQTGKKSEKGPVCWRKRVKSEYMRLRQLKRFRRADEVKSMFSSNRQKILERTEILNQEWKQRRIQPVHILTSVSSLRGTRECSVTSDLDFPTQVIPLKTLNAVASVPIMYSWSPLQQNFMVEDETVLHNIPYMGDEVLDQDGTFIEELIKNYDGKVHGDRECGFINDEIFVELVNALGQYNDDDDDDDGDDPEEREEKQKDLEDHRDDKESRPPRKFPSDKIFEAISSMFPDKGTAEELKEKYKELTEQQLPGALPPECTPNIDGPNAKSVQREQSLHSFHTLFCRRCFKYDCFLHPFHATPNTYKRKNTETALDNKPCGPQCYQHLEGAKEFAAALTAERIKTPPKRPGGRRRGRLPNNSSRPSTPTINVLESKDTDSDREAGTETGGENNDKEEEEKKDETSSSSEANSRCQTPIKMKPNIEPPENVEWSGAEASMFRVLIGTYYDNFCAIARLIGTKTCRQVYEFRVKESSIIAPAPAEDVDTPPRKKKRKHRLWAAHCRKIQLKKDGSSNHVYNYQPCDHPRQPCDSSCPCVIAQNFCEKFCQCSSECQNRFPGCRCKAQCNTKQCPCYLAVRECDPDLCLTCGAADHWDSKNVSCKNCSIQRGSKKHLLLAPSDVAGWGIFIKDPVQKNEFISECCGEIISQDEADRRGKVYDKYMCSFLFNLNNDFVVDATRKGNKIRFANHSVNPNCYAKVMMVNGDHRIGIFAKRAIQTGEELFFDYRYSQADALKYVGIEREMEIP
T6 sequence (O75530 whole entry partner): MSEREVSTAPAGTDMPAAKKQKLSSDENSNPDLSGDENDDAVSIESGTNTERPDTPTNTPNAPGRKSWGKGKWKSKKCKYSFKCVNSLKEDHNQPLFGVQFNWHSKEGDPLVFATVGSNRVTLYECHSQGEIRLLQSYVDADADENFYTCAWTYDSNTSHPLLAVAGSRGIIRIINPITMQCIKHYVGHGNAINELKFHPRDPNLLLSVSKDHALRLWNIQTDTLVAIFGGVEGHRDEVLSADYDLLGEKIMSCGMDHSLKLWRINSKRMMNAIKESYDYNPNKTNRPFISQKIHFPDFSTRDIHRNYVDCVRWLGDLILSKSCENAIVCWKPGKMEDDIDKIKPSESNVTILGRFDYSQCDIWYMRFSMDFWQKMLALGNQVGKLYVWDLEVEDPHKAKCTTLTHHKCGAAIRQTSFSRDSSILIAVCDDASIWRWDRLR
T6 sequence (Q15022 whole entry partner): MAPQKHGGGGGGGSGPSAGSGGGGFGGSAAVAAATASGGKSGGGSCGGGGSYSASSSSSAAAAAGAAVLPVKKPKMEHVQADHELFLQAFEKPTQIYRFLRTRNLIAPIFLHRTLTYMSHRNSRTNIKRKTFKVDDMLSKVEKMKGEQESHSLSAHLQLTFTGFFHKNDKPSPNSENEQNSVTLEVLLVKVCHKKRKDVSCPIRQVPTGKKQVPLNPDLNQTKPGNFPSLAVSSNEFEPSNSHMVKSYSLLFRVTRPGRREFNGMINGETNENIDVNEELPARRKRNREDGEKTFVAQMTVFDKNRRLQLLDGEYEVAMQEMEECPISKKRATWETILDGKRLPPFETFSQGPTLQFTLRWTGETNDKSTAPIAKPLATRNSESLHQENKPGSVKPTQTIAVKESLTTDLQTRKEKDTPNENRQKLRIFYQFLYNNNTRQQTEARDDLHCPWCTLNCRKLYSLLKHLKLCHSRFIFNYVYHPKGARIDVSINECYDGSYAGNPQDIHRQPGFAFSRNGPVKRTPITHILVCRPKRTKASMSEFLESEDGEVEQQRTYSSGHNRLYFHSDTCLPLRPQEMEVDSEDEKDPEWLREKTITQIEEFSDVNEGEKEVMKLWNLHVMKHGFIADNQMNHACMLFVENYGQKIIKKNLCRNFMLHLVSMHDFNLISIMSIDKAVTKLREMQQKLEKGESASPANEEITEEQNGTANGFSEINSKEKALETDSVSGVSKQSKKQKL
T6 sequence (Q09028 whole entry partner): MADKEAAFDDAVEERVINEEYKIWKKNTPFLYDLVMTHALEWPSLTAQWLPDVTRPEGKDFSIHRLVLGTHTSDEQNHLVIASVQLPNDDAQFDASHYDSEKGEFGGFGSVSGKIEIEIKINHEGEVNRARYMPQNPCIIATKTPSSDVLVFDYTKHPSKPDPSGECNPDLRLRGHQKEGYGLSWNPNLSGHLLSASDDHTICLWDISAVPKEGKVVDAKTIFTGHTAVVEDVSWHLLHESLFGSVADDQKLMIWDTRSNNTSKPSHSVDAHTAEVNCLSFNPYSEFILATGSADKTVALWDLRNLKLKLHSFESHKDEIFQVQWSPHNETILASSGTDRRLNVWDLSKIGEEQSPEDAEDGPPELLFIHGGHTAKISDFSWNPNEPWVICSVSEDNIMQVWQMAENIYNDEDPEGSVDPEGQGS
T6 sequence (Q6ZN18 whole entry partner): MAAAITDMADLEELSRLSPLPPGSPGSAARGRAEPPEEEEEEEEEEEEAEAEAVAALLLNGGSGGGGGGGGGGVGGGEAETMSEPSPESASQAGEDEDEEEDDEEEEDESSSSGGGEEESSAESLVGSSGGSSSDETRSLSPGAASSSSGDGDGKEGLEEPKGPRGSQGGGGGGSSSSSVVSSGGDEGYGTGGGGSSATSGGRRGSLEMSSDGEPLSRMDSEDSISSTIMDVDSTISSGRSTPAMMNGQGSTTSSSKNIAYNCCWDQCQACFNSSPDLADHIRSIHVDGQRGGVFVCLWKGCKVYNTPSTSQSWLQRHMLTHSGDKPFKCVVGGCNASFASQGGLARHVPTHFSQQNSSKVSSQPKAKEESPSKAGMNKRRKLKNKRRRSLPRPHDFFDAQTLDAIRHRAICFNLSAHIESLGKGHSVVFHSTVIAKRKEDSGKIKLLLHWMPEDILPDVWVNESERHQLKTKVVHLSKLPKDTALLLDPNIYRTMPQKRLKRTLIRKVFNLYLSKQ
T9 sequence (Q86X55 whole entry): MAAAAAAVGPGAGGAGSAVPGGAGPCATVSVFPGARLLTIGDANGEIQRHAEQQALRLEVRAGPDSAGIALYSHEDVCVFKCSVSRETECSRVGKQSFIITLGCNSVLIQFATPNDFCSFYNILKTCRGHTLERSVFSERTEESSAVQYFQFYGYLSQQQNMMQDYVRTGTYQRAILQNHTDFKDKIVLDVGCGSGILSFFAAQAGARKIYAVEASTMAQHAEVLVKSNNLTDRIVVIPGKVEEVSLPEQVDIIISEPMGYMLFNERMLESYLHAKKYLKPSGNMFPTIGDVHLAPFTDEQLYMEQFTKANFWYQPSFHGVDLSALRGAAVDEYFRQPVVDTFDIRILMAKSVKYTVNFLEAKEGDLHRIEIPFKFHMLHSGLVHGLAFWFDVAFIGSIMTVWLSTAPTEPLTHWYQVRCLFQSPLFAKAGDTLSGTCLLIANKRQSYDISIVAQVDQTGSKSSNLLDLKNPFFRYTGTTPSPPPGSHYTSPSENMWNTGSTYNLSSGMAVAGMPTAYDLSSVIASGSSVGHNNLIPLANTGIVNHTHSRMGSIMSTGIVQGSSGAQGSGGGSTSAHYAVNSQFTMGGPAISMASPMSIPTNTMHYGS

| Structure (SMILES) | inhibition at 10 µM (PRMT6) [%] | inhibition at 10 µM (EZH2 (A738T)) [%] | inhibition at 10 µM (Jarid1A) [%] | inhibition at 10 µM (FBXL11) [%] | inhibition at 10 µM (JMJD1A) [%] | inhibition at 10 µM (EZH2 (Y641C)) [%] | inhibition at 10 µM (Jarid1B) [%] | inhibition at 10 µM (JMJD2A) [%] | inhibition at 10 µM (PRMT4) [%] | IC50 (UTX) [µM] | inhibition at 10 µM (UTX) [%] | inhibition at 10 µM (SMYD2) [%] | inhibition at 10 µM (GCN5) [%] | inhibition at 10 µM (JMJD2E) [%] | inhibition at 10 µM (SIRT1) [%] | inhibition at 10 µM (JMJD2C) [%] |
| --- | --- | --- | --- | --- | --- | --- | --- | --- | --- | --- | --- | --- | --- | --- | --- | --- |
| COc1cc2nc(-c3ccc(C)o3)cc(NCC3CCN(c4ncc(C(=O)NO)cn4)CC3)c2cc1OC [CM-444, 2-[4-[[[6,7-dimethoxy-2-(5-methyl-2-furyl)-4-quinolyl]amino]methyl]-1-piperidyl]pyrimidine-5-carbohydroxamic acid] | 0 | 5 | 16 | 33 | 3 | 4 | 5 | 21 | 0 | 1.5 | 95 | 9 | 31 | 5 | 13 | 4 |
| COc1cc2nc(-c3cc(C)oc3C)cc(NCC3CCN(c4ncc(C(=O)NO)cn4)CC3)c2cc1OC [CM-1758, 2-[4-[[[2-(2,5-dimethyl-3-furyl)-6,7-dimethoxy-4-quinolyl]amino]methyl] -1-piperidyl]pyrimidine-5-carbohydroxamic acid] | 0 | 5 | 47 | 2 | 12 | 0 | 29 | 20 | 0 | 2.2 | 91 | 16 | 12 | 1 | 1 | 9 |
